System: R. pulicis
Format: cell-based, Rickettsia pulicis

With `CO[C@H]1/C=C/O[C@@]2(C)Oc3c(C)c(O)c4c(O)c(c(/C=N/N5CCN(C)CC5)c(O)c4c3C2=O)NC(=O)/C(C)=C\C=C\[C@H](C)[C@H](O)[C@@H](C)[C@@H](O)[C@@H](C)[C@H](OC(C)=O)[C@@H]1C` [Rifampin] the “inhibitory at single concentration tested” value was “inhibitory”.

Source: patent publication US20030003508A1 (priority 1999, published 2003)
